{"source": "patent US20120171123A1", "about": "“USES AND COMPOSITIONS FOR TREATMENT OF RHEUMATOID ARTHRITIS” (priority 2006, published 2012)", "key": {"adult patients with RA": {"system": "adult patients with RA", "assay": "Study 1: HAQ change by CRP category", "type": "in vivo, human", "description": "407 patients with active RA enrolled in the 2 study arms. Of these patients, 299 (73.5%) patients completed the study until Week 52 and were evaluated.\nPatients were grouped into three cohorts based on baseline CRP concentrations: low (<1 mg/dL); intermediate (1-4 mg/dL); and high (>4 mg/dL). Analyses were further conducted in two categories of patients according to their change in CRP concentrations at Week 12: those with a ≧20% decrease in CRP from baseline; or those with a <20% decrease in CRP from baseline. The following efficacy and radiographic measures were analyzed at Week 52 in the three baseline CRP categories and in the two Week 12 change in CRP categories: DAS28, ACR 20/50/70, Health assessment questionnaire (HAQ), and Total Sharp score (TSS)."}, "patients with active RA": {"system": "patients with active RA", "assay": "Study A in France: AIMS2-SF quality of life", "type": "in vivo, human", "details": "for AIMS2-SF Work component score: working patients only", "from_the_text": "Efficacy of a treatment for rheumatoid arthritis can be determined by comparing AIMS2-SF scores given by subjects having rheumatoid arthritis. The AIMS2-SF is a shorter version of the AIMS2 (i.e., available in 2-page format) and has psychometric properties similar to those of the AIMS2 (see Guillemin et al. (1997) Arthritis Rheum. 40(7):1267).\nUnsatisfactory response or intolerance to at least one prior DMARD was required for enrollment in Study A. A 12-week study period was followed by an optional extension phase, with an efficacy assessment performed at Weeks 2, 6, 12, 20, and every eight weeks thereafter. Patients discontinued the study when they stopped receiving adalimumab or when […].\nThe HAQ and the Arthritis Impact Measurement Scale Short Form (AIMS2-SF) are both extensively validated health-related quality-of-life outcome measures in RA (Guillemin et al. Arth Rheum 1997; 40(7):1267-1274). Both measures have been proven useful in cohort studies and clinical trials (Guillemin et al). The HAQ and the AIMS2-SF are effective in detecting both long-term and short-term health status changes (Guillemin et al). In France, Study A patients completed the French AIMS2-SF, a tool that measures disease impact on physical function and overall quality-of-life in five components. Study A began in France began in December 2002. Completion of the AIMS2-SF at Study Entry Visit 1, Week 12, and Week 28 (if patient participated in the continuation period) was a component added in March 2003 as a France-specific amendment to the study protocol. Because AIMS2-SF was introduced later into the study, the number of French patients answering the AIMS2-SF is smaller than the overall French Study A population\nA total of 266 patients out of 1,002 Study A patients in France completed the AIMS2-SF. AIMS2-SF responders recorded a significant improvement in quality-of-life."}, "[1]": {"system": "patients with active rheumatoid arthritis", "details": "Study A (N=2008), 12 weeks; cited from earlier work"}, "[2]": {"system": "patients with long-standing RA", "assay": "Study I open-label extension: DAS28 and clinical remission", "type": "in vivo, human", "details": "for patients in clinical remission (DAS28<2.6) / mean change from baseline in DAS28: last visit", "description": "217 patients who completed the blinded period and participated in the extension trial for a minimum of 6 months were allowed to adjust MTX and/or corticosteroid dosages at the discretion of the principal investigators. Dose tapering was conducted according to standard medical practice with respect to controlling disease activity\nDemographic data, age, gender, disease duration, rheumatoid factor and changes in TJC, SJC, CRP, DAS28, HAQ and ACR responses were analysed. Baseline demographics and disease characteristics as well as efficacy measures at last visit (ACR 20/50/70, DAS28, HAQ) were compared between the groups. All patients, including those who discontinued from the trial, were evaluated\nPatients were eligible to enroll in Study I if they met ACR criteria for diagnosis of RA. […] Efficacy outcomes were assessed at pre-specified intervals as observed data. Treatment time was calculated beginning with the first subcutaneous injection of adalimumab at any dose, excluding time on placebo. Improvements in signs and symptoms of RA were evaluated for ACR20, ACR50, and ACR70 criteria, 28-joint count Disease Activity Score (DAS28) using the CRP-based formula, and Health Assessment Questionnaire (HAQ). Patients with changes in dosage of MTX or corticosteroids were evaluated for at least 6 months; these patients were eligible for the extension study for at least 6 months and were eligible for discretionary dose tapering. Patients were monitored for adverse events (AEs) during the entire length of the study, from signed informed consent through last visit."}, "[3]": {"details": "Baseline to Week 12, mean of individual patient differences"}}, "note": "Marks after values point to notes of the source that are not given here.", "data": [{"molecule": "CN(Cc1cnc2nc(N)nc(N)c2n1)c1ccc(C(=O)N[C@@H](CCC(=O)O)C(=O)O)cc1", "note": "[mtx alone, methotrexate]", "values": [{"measurement": "mean change in HAQ", "setting": "adult patients with RA; week 52, <20% decrease in CRP at week 12", "result": "−0.29"}, {"measurement": "HAQ mean change", "setting": "adult patients with RA; week 52, baseline CRP 1-4 mg/dL", "result": "−0.4"}, {"measurement": "HAQ mean change", "setting": "adult patients with RA; week 52, baseline CRP <1 mg/dL", "result": "−0.4"}, {"measurement": "HAQ mean change", "setting": "adult patients with RA; week 52, baseline CRP >4 mg/dL", "result": "−0.3"}, {"measurement": "mean change in HAQ", "setting": "adult patients with RA; week 52, ≧20% decrease in CRP at week 12", "result": "−0.48"}]}, {"molecule": "adalimumab: human anti-TNF mAb (HUMIRA, Abbott Laboratories), described in U.S. Pat. No. 6,090,382 as D2E7", "values": [{"measurement": "AIMS2-SF Afect component score", "setting": "patients with active RA; Baseline", "result": 4.7}, {"measurement": "AIMS2-SF Physical component score", "setting": "patients with active RA; Baseline", "result": 3.9}, {"measurement": "AIMS2-SF Social component score", "setting": "patients with active RA; Baseline", "result": 5.3}, {"measurement": "AIMS2-SF Symptom component score", "setting": "patients with active RA; Baseline", "result": 6.7}, {"measurement": "AIMS2-SF Physical component, % Change", "setting": "patients with active RA; [3]", "result": "−25.0^§ %"}, {"measurement": "AIMS2-SF Social component, % Change", "setting": "patients with active RA; [3]", "result": 1.6, "unit": "%"}, {"measurement": "AIMS2-SF Social component, Mean Change", "setting": "patients with active RA; [3]", "result": "−0.1"}, {"measurement": "AIMS2-SF Symptom component, % Change", "setting": "patients with active RA; [3]", "result": "−43.4^§ %"}, {"measurement": "AIMS2-SF Symptom component, Mean Change", "setting": "patients with active RA; [3]", "result": "−3.2^§"}, {"measurement": "AIMS2-SF Work component score", "setting": "patients with active RA; Baseline", "result": 4.2}, {"measurement": "AIMS2-SF Work component score", "setting": "patients with active RA; Week 12", "result": 3.3}, {"measurement": "AIMS2-SF Afect component score", "setting": "patients with active RA; week 12", "result": 3.6}, {"measurement": "AIMS2-SF Physical component score", "setting": "patients with active RA; week 12", "result": 2.9}, {"measurement": "AIMS2-SF Social component score", "setting": "patients with active RA; week 12", "result": 5.3}, {"measurement": "AIMS2-SF Symptom component score", "setting": "patients with active RA; week 12", "result": 3.5}, {"measurement": "EULAR response, % good", "setting": "[1]", "result": 34, "unit": "%"}, {"measurement": "EULAR response, % moderate", "setting": "[1]", "result": 82, "unit": "%"}, {"measurement": "patients with DAS28<2.6", "setting": "[2]; 5 years", "result": 52, "unit": "%"}, {"measurement": "patients in clinical remission (DAS28<2.6)", "setting": "[2]; mtx and steroid decrease", "result": 24, "unit": "%"}, {"measurement": "mean change from baseline in DAS28", "setting": "[2]; mtx decrease", "result": "−2.7"}, {"measurement": "patients in clinical remission (DAS28<2.6)", "setting": "[2]; mtx decrease", "result": 7.2, "unit": "%"}, {"measurement": "mean change from baseline in DAS28", "setting": "[2]; mtx increase", "result": "−1.7"}, {"measurement": "patients in clinical remission (DAS28<2.6)", "setting": "[2]; mtx increase", "result": 6.7, "unit": "%"}, {"measurement": "mean change from baseline in DAS28", "setting": "[2]; mtx no change", "result": "−2.5"}, {"measurement": "patients in clinical remission (DAS28<2.6)", "setting": "[2]; mtx no change", "result": 15.5, "unit": "%"}, {"measurement": "mean change from baseline in DAS28", "setting": "[2]; mtx+steroid decrease", "result": "−3.0"}, {"measurement": "mean change from baseline in DAS28", "setting": "[2]; steroid decrease", "result": "−2.9"}, {"measurement": "patients in clinical remission (DAS28<2.6)", "setting": "[2]; steroid decrease", "result": 21.6, "unit": "%"}, {"measurement": "mean change from baseline in DAS28", "setting": "[2]; steroid no change", "result": "−2.5"}, {"measurement": "patients in clinical remission (DAS28<2.6)", "setting": "[2]; steroid no change", "result": 17.2, "unit": "%"}]}]}
